Assay results from patent EP0478964A1, “Pyrazoloquinoline derivatives” (SHIONOGI SEIYAKU KABUSHIKI KAISHA, priority 1990, dated 1992).

Key:
[1] = tested on: convulsion induced by pentylenetetrazol; experiment: Test of potentiating convulsion induced by pentylenetetrazol (inverse agonist activity); assay type: in vivo, mice; details: Mus musculus, iv, read-out: ED₅₀
Experimental: (§1) Inverse agonist activity was evaluated by the following procedure. A certain amount of a test compound was administered intravenously to 8-16 male mice per group, followed by pentylenetetrazol at a subcuataneous dose of 90 mg/kg. The dose (ED₅₀) at which 50% of mice stayed alive, was calculated by the Probit method.

[2] = target: BDZ receptor; experiment: BDZ receptor binding assay (displacement of tritium labeled diazepam); details: cerebral cortex of Wistar rats; 2nM tritium labeled diazepam; 0 °C for 60 minutes; Ki calculated from IC50
Experimental: This test was carried out according to the modified method of Möhler & Okada, Science, 198, 849-851 (1977).
The BDZ receptor preparation was provided from the cerebral cortex of Wistar rats (male, 11 to 13 week-old). Inhibitory activities of the test compound were determined by the specific binding strengh of tritium labeled diazepam to the receptor. 2nM tritium labeled diazepam and an aqeuous solution of the test compound at 5 or 6 different concentrations were incubated at 0 °C for 60 minutes. The 50 % inhibitory concentration (IC₅₀) was measured by the concentration-response curve.
The inhibitory constant (Ki) was calculated according to the following equation, in which Kd is the dissociation constant of the tritium labeled diazepam and L is the concentration of the labeled ligand. [formula]

[3] = tested on: convulsion induced by pentylenetetrazol; experiment: Test of suppressing convulsion induced by pentylenetetrazol (agonist activity); assay type: in vivo; details: Mus musculus; male mice; test compound intravenously; pentylenetetrazol subcutaneous 125 mg/kg; dose at which 50% of mice was alive; Probit method; read-out: ED₅₀
Experimental: as §1, with “Agonist” for “Inverse agonist”, “125” for “90”, “was” for “stayed”

Molecule O=c1c2c[nH]c3ccc(F)cc3c-2nn1C1=CCCC1 [I-31] has an ED50 [1] of 0.81 mg/kg and a Ki [2] of 0.48 nM.

With C/C=C/n1nc2c3ccccc3[nH]cc-2c1=O [I-24] the ED50 [1] was 0.23 mg/kg and the Ki [2] was 1 nM.

With CC1(C)C=C(n2nc3c4ccccc4[nH]cc-3c2=O)CO1 [I-39] the ED50 [3] was 0.19 mg/kg and the Ki [2] was 0.29 nM.

Cc1ccc2[nH]cc3c(=O)n(C4=CCCC4)nc-3c2c1 [I-36] showed an ED50 [1] of 0.4 mg/kg and a Ki [2] of 0.48 nM.

In the case of COc1ccc2c3nn(C4=CCCC4)c(=O)c-3c[nH]c2c1 [I-34], the Ki [2] is reported as 2.1 nM.

In the case of O=c1c2c[nH]c3ccccc3c-2nn1C1=CCCC1 [I-1, 2-(Cyclopenten-1-yl)-2,5-dihydro-3H-pyrazolo[4,3-c]quinolin-3-one], the ED50 ([1]; male mice, test compound intravenously, pentylenetetrazol subcutaneous 90 mg/kg, dose at which 50% of mice stayed alive, Probit method) is reported as 1.07 mg/kg and the Ki [2] is reported as 0.52 nM.

For COc1ccc2[nH]cc3c(=O)n(C4=CCOC4)nc-3c2c1 [I-11, 8-Methoxy-2-(2,5-dihydrofuran-3-yl)-2,5-dihydro-3H-pyrazolo[4,3-c]quinolin-3-one], the Ki [2] was 0.69 nM.

With CC1CC=C(n2nc3c4ccccc4[nH]cc-3c2=O)CC1 (stereo not drawn) [I-25] the ED50 [3] was 0.69 mg/kg and the Ki [2] was 3.1 nM.

CC(C)/C=C/n1nc2c3ccccc3[nH]cc-2c1=O [I-21] showed an ED50 [3] of 0.72 mg/kg and a Ki [2] of 0.98 nM.

In the case of O=c1c2c[nH]c3ccccc3c-2nn1C1=CCCCC1 [I-16], the Ki [2] is reported as 1.5 nM.

With O=c1c2c[nH]c3ccccc3c-2nn1C1=CCOC1 [I-38] the Ki [2] was 0.59 nM.
